The values below come from US7741311B2, “Composition and method for treating occlusive vascular diseases, nerve regeneration, and wound healing” (priority 2005, dated 2010).

Assay [1] relates to human dermal micro-vascular endothelial cells (HDMEC). Briefly: three-dimensional in vitro sprout angiogenesis assay (endothelial cells on gelatin-coated beads in fibrin gel). Type of assay: cell-based. Conditions: Ch 2 (10 μg); sub-threshold levels of VEGF and b-FGF; P<0.01. On the procedure: The effect of low molecular weight sulfated saccharides (molecular weight<5000 Dalton) on micro-vascular endothelial cell sprouting (in Vitro 3D Sprout Angiogenesis) is depicted with respect to culture of HDMEC on micro-carrier beads in FIG. 19. 80% confluent HDMEC (Passage 5-10) are mixed with gelatin-coated Cytodex-3 beads with a ratio of 40 cells per bead. If using 24-well plate for the assay, 150-200 beads per well are used. Cells and beads are suspended with 5 ml EBM+15% normal human serum, mixed gently every one hour for first four hours. Then the mixture culture is left in CO2 incubator overnight. The next morning, 10 ml of fresh EBM+15% HS and culture are added for another three hours. Before experiments, the culture of EC-beads is checked. 500 ul of PBS in a well of 24-well plate is added. 100 ul of the EC-bead culture solution is added to the PBS. The number of beads are observed and counted. The concentration of EC-beads is calculated. […]
Culture of HDMEC on micro-carrier beads: 80% confluent HDMEC (Passage 5-10) were mixed with gelatin-coated Cytodex-3 beads with a ratio of 40 cells per bead. […] The number of beads is counted and the concentration of EC-beads is calculated. […]
Growth factors: VEGF (30 ng/ml)+FGF2 (25 ng/ml) CH2: Sulfated Hexasaccharide at 10 ug/ml. […] A quantitative three-dimensional in vitro assay method was utilized to screen compounds for angiogenic activity. […]

The subject of assay [2] is chick chorioallantoic membrane (CAM). Kind of assay: neovascularization in the chick chorioallantoic membrane (CAM) model. The class given is in vivo. Conditions: n = 8. On the procedure:
In vivo neovascularization was examined by the method previously described by Auerbach et al. (Auerbach et al., J. Dev. Biol., 41:391-394 (1974), which is hereby incorporated by reference in its entirety). Ten-day old embryos were purchased from Spafas, Inc. (Preston, Conn.) and were incubated at 37° C. with 55% relative humidity. In the dark with the help of a candling lamp, a small hole was punctured in the shell concealing the air sac with a hypodermic needle. A second hole was punctured in the shell on the broadside of the egg directly over an avascular portion of the embryonic membrane, as observed during candling. […]
CAM tissue directly beneath FGF2-saturated filter disk was resected from embryos treated 48 hours prior with test compound or control. […] Digital images of CAM sections adjacent to filters were collected using a 3-CCD color video camera system (Toshiba America, New York, N.Y.) and analyzed using Image-Pro Plus software (Media Cybernetics, Silver Spring, Md.).
CAM tissue directly beneath FGF2-saturated filter disk was resected from embryos treated 48 h prior with compound or control. […] Digital images of CAM sections adjacent to filters were collected using a 3-CCD color video camera system (Toshiba America, New York, N.Y.) and analyzed with the Image-Pro Plus software (Media Cybernetics, Silver Spring, Md.).

Regarding `COc1cccc(-c2cc(=O)c3ccccc3o2)c1N` [PD9805], in assay [1], the “blockade of angiogenesis promoted by Ch 2” value was “blocked”. The “Mean % Inhibition ± SEM” value in assay [2] (inhibition of Ch 2 (10 μg) pro-angiogenesis by inhibitor 4.8 μg, P < 0.01) is given as 71 ± 6 %. In addition, the “Mean Branch Points ± SEM” value in assay [2] (inhibitor 4.8 μg added to PBS + Ch 2 (10 μg)) is 95 ± 8.
